According to patent US20080262079A1, “Cannabinoid Compositions and Methods of Use Thereof” (priority 2004, published 2008):

Experiments:
[1] = Blood analysis (cholesterol, triglyceride), body weight and tolerability in THC-treated apoE−/− mice
Protocol: The anti-atherosclerotic potential of THC was tested in the apolipoprotein E^−/− (apoE^−/−) mouse model of atherosclerosis. The studies presented herein utilized delta-9-Tetrahydrocannoabinol (THC), the major component of marijuana, as its immune-modulating effects have been well-documented in several studies. (See e.g., Srivastava, Immuopharmacology 40, 179-85 (1998); Zhu, J Immunol 165, 373-80 (2000); Yuan J Neuroimmunol 133, 124-31 (2002); Lyman, J Neuroimmunol 23, 73-81 (1989); Malfait, Proc Natl Acad Sci USA 97, 9561-6 (2000)). In addition, this compound is already commercially available, for example as an anti-vomiting drug or for use in treating anorexia. Since potential novel anti-inflammatory therapies should be well tolerated and preferably devoid of psychotropic effects, a low dosage of THC (e.g., 1 mg/kg) was used for daily oral administration. […] (Chesher, et al., Pharmacol Biochem Behav 35:861-4 (1990); Brenneisen, et al., Int J Clin Pharmacol Ther 34, 446-52 (1996); Chan, et al., Fundam Appl Toxicol 30, 109-17 (1996)) To test the therapeutic effect of THC on established atherosclerosis, apoE^−/− mice were fed with a high cholesterol diet for 5 weeks, and THC was then administered during the following 6 weeks, while maintaining the cholesterol diet.
Animals: As a model of in vivo atherosclerosis, 10-week old male apolipoprotein E^−/− mice (apoE^−/−) C57BL/6 mice were used. For histological and atherosclerotic plaque development analysis, mice were fed with a high cholesterol diet (1.25% cholesterol, 0% cholate; Research Diets, New Brunswick N.J., USA) for 5 weeks or for 11 weeks (n=6 per group). THC was administered during the last 6 weeks of the 11 week diet group. In parallel, control mice (littermates) received milk without THC (n =8). For proliferation and cytokine analysis, littermate apoE^−/− mice were divided into 2 groups (control, THC; n=6 per group) and fed with a high cholesterol diet for 4 weeks. THC or milk only was administered during the last 2 weeks of diet. All animal studies were approved by the local Ethical Committee.
Blood Analysis: For measurements of cholesterol and triglyceride content, blood samples were collected at the beginning and the end of the diet. HDL and VLDL cholesterol fractions of sera were measured by fast protein lipid chromatography. THC levels in blood (after 2, 4 and 6 weeks of treatment) were measured by gas chromatography/mass spectrometry with a limit of detection of […] as previously described. (Giroud, et al. Forensic Sci Int 123, 159-64 (2001)).

[2] = test system: thioglycollate-elicited peritoneal macrophages from apoE−/− mice; assay: Transmigration assay: chemo-attraction of peritoneal macrophages to MCP-1; assay type: cell-based, mouse; conditions: THC 0.6 ng/ml, 4 hours with 1 ng/ml mIFN-γ, 1 nM MCP-1, 90 minutes
From the text: Early processes of atherosclerosis involve endothelial dysfunction in response to cardiovascular risk factors, which triggers the recruitment of leukocytes (monocytes/macrophages and T lymphocytes) into the vessel wall. The studies described herein address whether treatment with THC inhibited cell migration using a functional in vitro experiment. Thioglycollate-stimulated peritoneal mouse macrophages were isolated from apoE^−/− mice and assayed for their migration capacity by chemo-attraction to MCP-1.
Reagents: Synthetic delta-9-THC Marinol® (Dronanbinol, Unimed Pharmaceuticals, Inc.; Marietta Ga., USA) was dissolved at 0.1 mg/ml in 5.5.% fat milk (w/v) in water. THC (1 mg/kg per day) in 1.5% fat milk (w/v) was administered orally within drinking water. Delta-9-THC for in vitro experiments was purchased as a stock solution of 1 mg/ml in methanol (Cambridge Isotype Laboratories, Andover Mass., USA) and were further diluted in warm medium immediately before use. […]
Transmigration assay: Macrophages from the peritoneal cavity of thioglycollate-injected apoE^−/− mice were isolated 4 days post-injection and stimulated (in triplicates) for 4 hours with 1 ng/ml mIFN-γ in the presence or absence of 0.6 ng/ml THC (n=4 mice). […] Following 90 minutes of incubation, the number of migrated cells was determined by counting (blind observers) 10 microscopic fields per well.

[3] = test system: apolipoprotein E−/− (apoE−/−) mouse model of atherosclerosis; assay: Atherosclerotic lesion size quantification in apoE−/− mice on high cholesterol diet (Sudan IV staining); assay type: in vivo; conditions: 11 weeks high cholesterol diet, THC 1 mg/kg daily orally during last 6 weeks, vs control mice
Protocol: (§1) Reagents: Synthetic delta-9-THC Marinol® (Dronanbinol, Unimed Pharmaceuticals, Inc.; Marietta Ga., USA) was dissolved at 0.1 mg/ml in 5.5.% fat milk (w/v) in water. THC (1 mg/kg per day) in 1.5% fat milk (w/v) was administered orally within drinking water. Delta-9-THC for in vitro experiments was purchased as a stock solution of 1 mg/ml in methanol (Cambridge Isotype Laboratories, Andover Mass., USA) and were further diluted in warm medium immediately before use. For in vitro transmigration assays, all experiments were performed by adding corresponding dilutions of the THC vehicle (methanol) to the non-THC-treated controls.
Atherosclerotic lesion size quantification: Atherosclerotic lesions within the thoraco-abdominal aorta and aortic roots were analyzed by Sudan IV staining for lipid deposition. Quantification was performed by computer image analysis using the MetaMorph6 software (Zeiss, Feldbach, Switzerland) as previously described. (Kwak et al., Circulation 107, 1033-9 (2003)).

[4] = THC levels in blood serum of THC-treated mice (gas chromatography/mass spectrometry); assay type: in vivo, mouse; conditions: apoE−/− mice, THC 1 mg/kg per day orally
Protocol: as §1

[5] = test system: Th1 (IFN-γ, IL-12) and Th2 (IL-4, IL-10) cytokines, TGF-β; assay: Cytokine analysis by ELISA in culture supernatants of conA-stimulated lymphoid cells from THC-treated mice; assay type: cell-based, mouse
splenocytes = assay: Proliferation assay (MTS) of conA-stimulated splenocytes isolated from THC-treated mice; assay type: cell-based, mouse; conditions: cells from THC-treated vs untreated apoE−/− mice, conA 72 hours
Protocol: Proliferation Assay: Splenocytes (SC) or lymph node cells (LNC) were isolated from THC- or milk-treated mice and cultured in 96-well plates at a concentration of 5×10^6 cells/ml. Culture medium consisted of RPMI 1640 supplemented with 25 mM HEPES buffer, 2 mM L-glutamine, 100 U/ml penicillin, 0.1 mg/ml streptomycin, and 10% heat-inactivated fetal bovine serum (FBS). Cells were stimulated in triplicates with varying concentrations of concanavalin (con A; Sigma). After 72 hours, cell proliferation was determined using a non-radioactive MTS cell proliferation assay (Promega) according to the manufacturer's guidelines.

[6] = test system: murine collagen-induced arthritis, a mouse model of rheumatoid arthritis; conditions: cited from earlier work
[7] = THC 1 mg/kg per day orally, apoE−/− mice
[8] = THC-treated vs control apoE−/− mice
[9] = THC-treated vs untreated mice, conA 2 μg/ml, supernatant 48 hours, ELISA

SMILES	deaths during treatment [1, 7]	unhealthy behavior [1, 7]	body weights [1, 8]	serum cholesterol levels [1, 8]	serum triglyceride levels [1, 8]	migration of macrophages [2]	progression of atherosclerotic lesions within the aortic roots [3]	THC concentration in blood serum [4] [ng/mL]	IL-4 expression ([5]; THC-treated mice, conA-stimulated cells, ELISA)	IL-12 expression ([5]; THC-treated mice, conA-stimulated cells, supernatant 48 hours, ELISA)	Th1/Th2 balance (ratio of IFN-γ to IL-10 concentration) ([5]; THC-treated vs untreated mice)	IFN-γ production [5, 9]	TGF-β production [5, 9]	IL-10 production ([5]; THC-treated vs untreated mice, conA 2 μg/ml, supernatant 72 hours, ELISA)	proliferative responses of in vitro stimulated splenocytes (splenocytes)	proliferation and IFN-γ production of lymph node cells from treated mice (Th1 responses) ([6]; collagen-induced arthritis mice)	chronic inflammation in collagen-induced arthritis ([6]; mouse model of rheumatoid arthritis)
CCCCCc1cc(O)c2c(c1)OC(C)(C)C1CCC(C)=CC21 (centres unmarked) [THC, delta-9-tetrahydrocannabinol]	None of the THC-treated mice died during treatment	none showed unhealthy behavior	No differences	No differences	No differences	significantly inhibited	significantly reduced progression of atherosclerotic lesions	0.6	neither expression of IL-4 nor IL-12 was detectable	neither expression of IL-4 nor IL-12 was detectable	shift of the Th1/Th2 balance	significantly less	modest, but not significant, downregulation	modest, but not significant, downregulation	significantly reduced		
C=C(C)[C@@H]1CCC(C)=C[C@H]1c1c(O)cc(CCCCC)cc1O [cannabidiol]																reduced	ameliorated chronic inflammation
